Data set [1] relates to HCMV, strain C8805-37 (DHPG-resistant). Put plainly: microbe, parasite or virus in culture. In kind it is cell-based, human cytomegalovirus. Conditions: for inhibition at 0.01 µg/mL / inhibition at 0.032 µg/mL / inhibition at 0.1 µg/mL / inhibition at 0.32 µg/mL / inhibition at 1 µg/mL / inhibition at 3.2 µg/mL: Human betaherpesvirus 5, MRC5, read-out: Percent Inhibition Compared to Controls.

For data set [2], the system named is human cytomegalovirus (HCMV), strain AD-169. Nature of the data set: Antiviral test (plaque reduction) versus HCMV, strain AD-169, in MRC-5 cells. The format is cell-based. Conditions: for % Reduction / Number of Plaques: Example 6.
[3] abbreviates: Table 9 summary, two values = two experiments.
Where [4] appears, read: Human betaherpesvirus 5, AD169, MRC5, read-out: % Reduction.
[5] abbreviates: 10 μg/ml, Example 2, ethanol stock (protohypericin in DMSO), cells exposed 6 or more days.
The mark [6] stands for this setting: Example 2, cells exposed 6 or more days.

Several values for one entry are separate records, joined by “and”; a condition that tells them apart may be missing. Equal entries are not always repeated. Entries after “also recorded” stand apart in the source; their conditions may differ. Where two headings read alike, the source gives them in different places. Where only a bound is given, the exact number is not on record here.

As to `O=C1c2ccccc2C(=O)c2c1ccc(O)c2O` [Alizarin, alizarin], in data set [1] (Human betaherpesvirus 5, MRC5, 96 h, read-out: Percent Inhibition Compared to Controls), the inhibition at 10 µg/mL came to 97%. Besides, in data set [1], the inhibition at 0.01 µg/mL came out at 0%, the inhibition at 0.032 µg/mL came to 19%, the inhibition at 0.1 µg/mL was determined as 0% and the inhibition at 0.32 µg/mL amounted to 0%. Further, in data set [1], the inhibition at 1 µg/mL worked out at 21% and the inhibition at 3.2 µg/mL amounted to 75%. In addition, the CD50 in the data set on MRC-5 cells (Example 3, cells exposed 4 days) is greater than 10 µg/mL. Besides, the CD50 in the data set with MRC-5 cells (Example 5) is > 10 µg/mL and ~13 µg/mL. The molecule further had a CD50 in the data set on MRC-5 cells (setting [3]) greater than 10 µg/mL. Also, the CD50 with MRC-5 cells (Table 10 summary, DHPG resistant HCMV test) is greater than 10 µg/mL. In addition, the “Activity against HCMV” value in data set [2] is reported as “show activity; also recorded: active”. In data set [2] (setting [4]), the inhibition at 0.01 µg/mL was found to be 0%, the inhibition at 0.032 µg/mL came out at 0%, the inhibition at 0.1 µg/mL is 0% and the inhibition at 0.32 µg/mL came to 0%. Moreover, in data set [2] (setting [4]), the inhibition at 1 µg/mL was 0%, the inhibition at 3.2 µg/mL amounted to 0% and the inhibition at 10 µg/mL stood at 96%.
Consider `Cc1cc(O)c2c(c1)Cc1cc(O)cc(O)c1C2=O` [Emodin Anthrone, emodin anthrone], for which, in data set [1], the “Activity against DHPG resistant HCMV strain” value is recorded as “shows activity; also recorded: active”, the “Percent Inhibition Compared to Controls” value is on record as “toxic”, the inhibition at 0.01 µg/mL was 0% and the inhibition at 0.032 µg/mL was determined as 0%. Moreover, in data set [1], the inhibition at 0.1 µg/mL was found to be 0%, the inhibition at 0.32 µg/mL stood at 0%, the inhibition at 1 µg/mL amounted to 24% and the inhibition at 3.2 µg/mL was determined as 100%. In the data set with MRC-5 cells (human, 4 days), the CD50 was determined as 2.6 µg/mL. The “Percent Inhibition of Plaque Numbers (Compared to Virus Controls)” value (“Percent Inhibition of Plaque Numbers” below) in data set [2] (3.2 μg/ml, Example 2) was “toxic”. Further, the “Percent Inhibition of Plaque Numbers” value in data set [2] (setting [5]) is “toxic”. Further, in data set [2] (Human betaherpesvirus 5, AD169, MRC5, 0.01 μg/ml, Example 2, read-out: Percent Inhibition of Plaque Numbers (Compared to Virus Controls)), the inhibition at 0.01 µg/mL was 0%. For the same molecule, in data set [2] (Human betaherpesvirus 5, AD169, MRC5, 0.032 μg/ml, Example 2, read-out: Percent Inhibition of Plaque Numbers (Compared to Virus Controls)), the inhibition at 0.032 µg/mL turned out to be 0%. Further, the inhibition at 0.1 µg/mL in data set [2] (Human betaherpesvirus 5, AD169, MRC5, 0.1 μg/ml, Example 2, read-out: Percent Inhibition of Plaque Numbers (Compared to Virus Controls)) came to 0%. The inhibition at 0.32 µg/mL in data set [2] (Human betaherpesvirus 5, AD169, MRC5, 0.32 μg/ml, Example 2, read-out: Percent Inhibition of Plaque Numbers (Compared to Virus Controls)) was 0%. Besides, in data set [2] (Human betaherpesvirus 5, AD169, MRC5, 1.0 μg/ml, Example 2, read-out: Percent Inhibition of Plaque Numbers (Compared to Virus Controls)), the inhibition at 1 µg/mL was 0%. Also, the “Activity in initial screening against HCMV in vitro” value in data set [2] (initial screening, in words) is listed as “not active”.
Regarding `Cc1cc(O)c2c(c1)C(C1c3cc(C)cc(O)c3C(=O)c3c(O)cc(O)cc31)c1cc(O)cc(O)c1C2=O` (stereo not drawn) [Emodin Bianthrone (meso), emodin bianthrone], the CD50 in the data set with MRC-5 cells (setting [6]) and with MRC-5 cells (setting [3]) was 1.8 µg/mL each time. For the same molecule, the “Percent Inhibition of Plaque Numbers” value in data set [2] (0.01 μg/ml, Example 2) is listed as 0%; in data set [2] (0.032 μg/ml, Example 2), 0%; in data set [2] (0.1 μg/ml, Example 2) it was 0%; in data set [2] (0.32 μg/ml, Example 2) it was 0%; in data set [2] (1.0 μg/ml, Example 2), 32%; in data set [2] (3.2 μg/ml, Example 2), “toxic”. For the same molecule, the “Percent Inhibition of Plaque Numbers” value in data set [2] (setting [5]) is “toxic”.
Regarding `O=C(O)c1cc(O)c2c(c1)[C@@H]([C@H]1c3cc(C(=O)O)cc(O)c3C(=O)c3c(O[C@@H]4O[C@H](CO)[C@@H](O)[C@H](O)[C@H]4O)cccc31)c1cccc(O[C@@H]3O[C@H](CO)[C@@H](O)[C@H](O)[C@H]3O)c1C2=O` [Meso Sennoside B, sennoside B], the CD50 with MRC-5 cells (setting [6]) and in the data set on MRC-5 cells (setting [3]) was greater than 10 µg/mL throughout. Moreover, the “Percent Inhibition of Plaque Numbers” value is 0% in data set [2] (0.01 μg/ml, Example 2); 0% in data set [2] (0.032 μg/ml, Example 2); 0% in data set [2] (0.1 μg/ml, Example 2); 0% in data set [2] (0.32 μg/ml, Example 2); 0% in data set [2] (1.0 μg/ml, Example 2); 0% in data set [2] (3.2 μg/ml, Example 2). In addition, in data set [2] (setting [5]), the “Percent Inhibition of Plaque Numbers” value is on record as 0%.
In the data set on MRC-5 cells, `COc1cc(O)c2c(c1)C(=O)c1cc(C)cc(O)c1C2=O` [Physcione, physcione] came in with a CD50 greater than 10 µg/mL. For the same molecule, the “% Reduction” value in data set [2] (0.01 μg/ml), in data set [2] (0.032 μg/ml), in data set [2] (0.1 μg/ml), in data set [2] (0.32 μg/ml), in data set [2] (1.0 μg/ml) and in data set [2] (3.2 μg/ml) was 0% in each case. In addition, the “% Reduction” value in data set [2] (10.0 μg/ml) was 0%. Further, the “Number of Plaques” value is 17 in data set [2] (0.01 μg/ml); 14 in data set [2] (0.032 μg/ml); 19 in data set [2] (0.1 μg/ml); 18 in data set [2] (0.32 μg/ml); 18 in data set [2] (1.0 μg/ml); 25 in data set [2] (3.2 μg/ml). For the same molecule, the “Number of Plaques” value in data set [2] (10.0 μg/ml) came to 31.
`O=C1c2ccccc2C(=O)c2c(O)c(O)cc(O)c21` [Purpurin, purpurin] returned a CD50 in the data set on MRC-5 cells (human) of 5.6 µg/mL. In addition, in data set [2] (setting [4]), the inhibition at 0.01 µg/mL was 0%, the inhibition at 0.032 µg/mL stood at 0%, the inhibition at 0.1 µg/mL turned out to be 0% and the inhibition at 0.32 µg/mL came to 0%. In data set [2] (setting [4]), the inhibition at 1 µg/mL was determined as 0% and the inhibition at 3.2 µg/mL is 0%.
In the case of `O=C1c2ccccc2C(=O)c2c(O)ccc(O)c21` [Quinizarin, 1,4-dihydroxyanthraquinone], in the data set with MRC-5 cells (human), the CD50 is greater than 10 µg/mL. For the same molecule, the “Activity against HCMV” value in data set [2] is recorded as “Slight activity; also recorded: show activity; also recorded: activity but at lower levels”. Moreover, in data set [2] (setting [4]), the inhibition at 0.01 µg/mL stood at 0%, the inhibition at 0.032 µg/mL was found to be 0%, the inhibition at 0.1 µg/mL is 0% and the inhibition at 0.32 µg/mL turned out to be 0%.
In the data set with MRC-5 cells (setting [6]), protohypericin gave a CD50 of 5.6 µg/mL. For the same molecule, the CD50 in the data set on MRC-5 cells (setting [3]) was determined as 5.6 µg/mL. Besides, in data set [2], the “Activity against HCMV” value is reported as “show activity; also recorded: good biological activity”, the “Activity in initial screening against HCMV in vitro” value is on record as “active” and the “Percent Inhibition of Plaque Numbers” value worked out at 0%.

These data come from patent US6686393B1, “Pharmaceutical compositions having antiviral activity against human cytomegalovirus” (Murdock International Corporation, priority 1990, dated 2004).
